This assay deals with L1210 leukemia ip in BDF1 mice, survival T/C. The assay can be described thus: NCI In Vivo Anticancer Drug Screen. Data for tumor model L1210 Leukemia (intraperitoneal) in B6D2F1 (BDF1) mice. Conditions: endpoint: mean survival time, higher = longer survival. The method in brief:
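Transplanted-tumor mice were given test agent; controls received vehicle only. Survival readings from the two groups were divided (treated over control).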

The mark [1] stands for this setting: dose: 100.0 mg/kg/injection, schedule: Q04DX003 (ip), vehicle: Klucel (hydroxypropylcellulose) (HPC).
The mark [2] stands for this setting: dose: 200.0 mg/kg/injection, schedule: Q04DX003 (ip), vehicle: Klucel (hydroxypropylcellulose) (HPC).
Setting [3] is: dose: 400.0 mg/kg/injection, schedule: Q04DX003 (ip), vehicle: Klucel (hydroxypropylcellulose) (HPC).
Setting [4] is: dose: 50.0 mg/kg/injection, schedule: Q01DX009 (ip), vehicle: Klucel (hydroxypropylcellulose) (HPC).
[5] abbreviates: dose: 100.0 mg/kg/injection, schedule: Q01DX009 (ip), vehicle: Klucel (hydroxypropylcellulose) (HPC).
The mark [6] stands for this setting: dose: 400.0 mg/kg/injection, schedule: Q01DX009 (ip), vehicle: saline with Tween-80.
Setting [7] is: dose: 100.0 mg/kg/injection, schedule: Q04DX003 (ip), vehicle: saline with Tween-80.
[8] abbreviates: dose: 200.0 mg/kg/injection, schedule: Q04DX003 (ip), vehicle: saline with Tween-80.
The mark [9] stands for this setting: dose: 400.0 mg/kg/injection, schedule: Q04DX003 (ip), vehicle: saline with Tween-80.

Values joined by “and” are separate entries in the source; they are usually repeats but may differ in a detail not shown here. Equal entries are not always repeated. Toxic doses and inconclusive results are not listed.

With `CC1S(=O)(=O)CC(NC(=O)N(CCCl)N=O)CS1(=O)=O` (configuration not stated), the T/C reads like this: (dose: 3.5 mg/kg/injection, schedule: Q01DX001 (ip), vehicle: saline with Tween-80) 159 % of control; (dose: 5.3 mg/kg/injection, schedule: Q01DX001 (ip), vehicle: saline with Tween-80) 172 % of control and 208 % of control; (dose: 8.0 mg/kg/injection, schedule: Q01DX001 (ip), vehicle: saline with Tween-80) 278 % of control and 309 % of control; (dose: 12.0 mg/kg/injection, schedule: Q01DX001 (ip), vehicle: saline with Tween-80) 357 % of control [middle of 4 runs]; (dose: 18.0 mg/kg/injection, schedule: Q01DX001 (ip), vehicle: saline with Tween-80) 324 % of control and 421 % of control; (dose: 26.0 mg/kg/injection, schedule: Q01DX001 (ip), vehicle: saline with Tween-80) 444 % of control and 458 % of control. Further, the T/C (dose: 40.0 mg/kg/injection, schedule: Q01DX001 (ip), vehicle: saline with Tween-80) is 516 % of control and 442 % of control; the T/C (dose: 60.0 mg/kg/injection, schedule: Q01DX001 (ip), vehicle: saline with Tween-80) was 421 % of control and 156 % of control; the T/C (dose: 90.0 mg/kg/injection, schedule: Q01DX001 (ip), vehicle: saline with Tween-80) is 252 % of control and 258 % of control; the T/C (dose: 135.0 mg/kg/injection, schedule: Q01DX001 (ip), vehicle: saline with Tween-80) was 116 % of control.

Consider `II`, for which the T/C is 96 % of control (dose: 12.0 mg/kg/injection, schedule: Q01DX009 (ip), vehicle: acetone); 93 % of control (dose: 25.0 mg/kg/injection, schedule: Q01DX009 (ip), vehicle: acetone); 106 % of control (dose: 50.0 mg/kg/injection, schedule: Q01DX009 (ip), vehicle: acetone).

Turning to `CCCCCCCCCCCCCCCCCCN1CNC(=O)NC1`, the T/C under setting [1] is 93 % of control and the T/C under setting [2] is 101 % of control.

For the compound `COC(=O)C(C)NC(=O)C(C)NC(=O)c1cnc2ccccc2n1` (configuration not stated), the T/C runs as follows: (dose: 100.0 mg/kg/injection, schedule: Q01DX001 (ip), vehicle: carboxymethylcellulose (CMC)) 89 % of control; (dose: 200.0 mg/kg/injection, schedule: Q01DX001 (ip), vehicle: carboxymethylcellulose (CMC)) 93 % of control.

Take `COc1ccccc1-n1c(O)c(N=Nc2ccc(Br)cc2)c(=O)n(-c2ccc(I)cc2)c1=S`: the T/C (dose: 50.0 mg/kg/injection, schedule: Q01DX001 (ip), vehicle: Klucel (hydroxypropylcellulose) (HPC)) is 102 % of control; the T/C (dose: 100.0 mg/kg/injection, schedule: Q01DX001 (ip), vehicle: Klucel (hydroxypropylcellulose) (HPC)) was 112 % of control; the T/C (dose: 200.0 mg/kg/injection, schedule: Q01DX001 (ip), vehicle: Klucel (hydroxypropylcellulose) (HPC)) is 102 % of control.

As to `Cc1cccc2c1C1c3ccccc3C(=O)CC1CC2=O` (configuration not stated), the T/C reads like this: under setting [1], 98 % of control; under setting [2], 97 % of control; under setting [3], 93 % of control.

With `CC(=O)OC1C(C=O)OC(C)(C)OC1C1COC(=O)O1` (configuration not stated), the T/C runs as follows: (dose: 25.0 mg/kg/injection, schedule: Q04DX002 (ip), vehicle: Klucel (hydroxypropylcellulose) (HPC)) 104 % of control; (dose: 50.0 mg/kg/injection, schedule: Q04DX002 (ip), vehicle: Klucel (hydroxypropylcellulose) (HPC)) 93 % of control; (dose: 100.0 mg/kg/injection, schedule: Q04DX002 (ip), vehicle: Klucel (hydroxypropylcellulose) (HPC)) 100 % of control.

Regarding `O=C1C=C2C(=CCOC2O)O1` (configuration not stated), the T/C by setting is: (dose: 0.25 mg/kg/injection, schedule: Q01DX009 (ip), vehicle: Klucel (hydroxypropylcellulose) (HPC)) 97 % of control; (dose: 0.5 mg/kg/injection, schedule: Q01DX009 (ip), vehicle: Klucel (hydroxypropylcellulose) (HPC)) 103 % of control; (dose: 1.0 mg/kg/injection, schedule: Q01DX009 (ip), vehicle: Klucel (hydroxypropylcellulose) (HPC)) 109 % of control; (dose: 2.0 mg/kg/injection, schedule: Q01DX009 (ip), vehicle: Klucel (hydroxypropylcellulose) (HPC)) 104 % of control; (dose: 4.0 mg/kg/injection, schedule: Q01DX009 (ip), vehicle: Klucel (hydroxypropylcellulose) (HPC)) 101 % of control.

In the case of `COC(=O)NC1CC(O)C(CO)C1` (configuration not stated), the T/C by setting is: under setting [4], 94 % of control; under setting [5], 97 % of control.

Regarding `CSC(=NC#N)SC`, the T/C reads like this: (dose: 1.5 mg/kg/injection, schedule: Q01DX009 (ip), vehicle: Klucel (hydroxypropylcellulose) (HPC)) 100 % of control; (dose: 1.5 mg/kg/injection, schedule: Q04DX003 (ip), vehicle: Klucel (hydroxypropylcellulose) (HPC)) 100 % of control; (dose: 3.0 mg/kg/injection, schedule: Q01DX009 (ip), vehicle: Klucel (hydroxypropylcellulose) (HPC)) 101 % of control; (dose: 3.0 mg/kg/injection, schedule: Q04DX003 (ip), vehicle: Klucel (hydroxypropylcellulose) (HPC)) 90 % of control; (dose: 6.0 mg/kg/injection, schedule: Q01DX009 (ip), vehicle: Klucel (hydroxypropylcellulose) (HPC)) 95 % of control; (dose: 6.0 mg/kg/injection, schedule: Q04DX003 (ip), vehicle: Klucel (hydroxypropylcellulose) (HPC)) 97 % of control.

For `CCC(Cl)COP(=O)(OCC(Cl)CC)C(C)P(=O)(OCC(Cl)CC)OCC(Cl)CC` (configuration not stated), the T/C was 96 % of control (dose: 62.5 mg/kg/injection, schedule: Q04DX003 (ip), vehicle: Klucel (hydroxypropylcellulose) (HPC)); 97 % of control (dose: 125.0 mg/kg/injection, schedule: Q04DX003 (ip), vehicle: Klucel (hydroxypropylcellulose) (HPC)); 96 % of control (dose: 250.0 mg/kg/injection, schedule: Q04DX003 (ip), vehicle: Klucel (hydroxypropylcellulose) (HPC)).

For the compound `O=C(O)C(O)C(O)C(O)C(O)C(=O)O` (configuration not stated), the T/C is 92 % of control (dose: 50.0 mg/kg/injection, schedule: Q01DX009 (ip), vehicle: saline); 94 % of control (dose: 100.0 mg/kg/injection, schedule: Q01DX009 (ip), vehicle: saline); 95 % of control under setting [1]; 89 % of control (dose: 200.0 mg/kg/injection, schedule: Q01DX009 (ip), vehicle: saline); 91 % of control under setting [2]; 92 % of control (dose: 400.0 mg/kg/injection, schedule: Q01DX009 (ip), vehicle: saline). In addition, the T/C is 91 % of control under setting [3]; 90 % of control (dose: 600.0 mg/kg/injection, schedule: Q01DX001 (ip), vehicle: saline); 100 % of control (dose: 600.0 mg/kg/injection, schedule: Q01DX009 (ip), vehicle: saline); 93 % of control and 90 % of control (dose: 800.0 mg/kg/injection, schedule: Q01DX001 (ip), vehicle: saline); 97 % of control (dose: 800.0 mg/kg/injection, schedule: Q01DX009 (ip), vehicle: saline); 95 % of control and 88 % of control (dose: 1000.0 mg/kg/injection, schedule: Q01DX001 (ip), vehicle: saline). In addition, the T/C (dose: 1000.0 mg/kg/injection, schedule: Q01DX009 (ip), vehicle: saline) was 100 % of control.

As for `S=C(Nc1ccccc1)N(C1CCCCC1)C1CCCCC1`, under setting [6], the T/C was 158 % of control.

For `CC(C)=NNC(=O)c1ccc[n+](C)c1`, the T/C reads like this: (dose: 100.0 mg/kg/injection, schedule: Q01DX001 (ip), vehicle: saline) 102 % of control; (dose: 200.0 mg/kg/injection, schedule: Q01DX001 (ip), vehicle: saline) 98 % of control; (dose: 400.0 mg/kg/injection, schedule: Q01DX001 (ip), vehicle: saline) 100 % of control.

As to `O=C1c2ccccc2C(=O)N1CNCCCNCN1C(=O)c2ccccc2C1=O`, the T/C is 93 % of control under setting [7], 95 % of control under setting [8] and 96 % of control under setting [9].

As to `O=C(/C=C/C=C/c1ccccc1)c1ccccc1O`, the T/C (dose: 50.0 mg/kg/injection, schedule: Q01DX009 (ip), vehicle: saline with Tween-80) was 91 % of control; the T/C (dose: 100.0 mg/kg/injection, schedule: Q01DX009 (ip), vehicle: saline with Tween-80) was 87 % of control and 89 % of control; the T/C under setting [7] is 94 % of control; the T/C (dose: 200.0 mg/kg/injection, schedule: Q01DX009 (ip), vehicle: saline with Tween-80) was 94 % of control; the T/C under setting [8] was 91 % of control; the T/C under setting [6] is 89 % of control. Moreover, the T/C under setting [9] is 93 % of control.

Take `S=C(NCc1ccc(Cl)c(Cl)c1)Nc1ccccc1`: the T/C reads like this: (dose: 25.0 mg/kg/injection, schedule: Q01DX009 (ip), vehicle: Klucel (hydroxypropylcellulose) (HPC)) 102 % of control; under setting [4], 90 % of control; under setting [5], 87 % of control and 90 % of control.

These data come from PubChem BioAssay AID248 (DTP/NCI, 2004).
